Laboratory results as given in US9642832B2, “Use of atractylenolide compound or its derivatives and a medicament for inhibiting platelet aggregation” (No. 3 People Hospital Affiliated to Shanghai Jiaotong …, priority 2014, dated 2017).

Key:
Type in all cases: cell-based, human
platelets [1] = test: Platelet aggregation test, thrombin as stimulant; conditions: for in vitro platelet aggregation inhibition, comparative experiment: under the stimulus of thrombin; for platelet aggregation inhibition: human platelets 3×10^8/mL, compound 0.1, 0.5, 1, 5, 10 μM, incubated 3 mins, thrombin stimulant
platelets [2] = test: Platelet spreading test on fibrin, phalloidin staining; conditions: platelets 3×10^7/mL, compound 1, 5, 10 μM, incubated 3 mins, spread on fibrin (40 μg/mL), 100× oil immersion lens
Method: (1) Preparation of platelets: use the same method as abovementioned to prepare platelets counting 3×10^7/mL.
The compound is incubated in platelets for 3 mins. The platelets treated by the drug are spread on fibrin (40 μg/mL). After Staining by the fluorescent antibody phalloidin, the spreading of platelets are observed under the 100× oil immersion lens.
(2) Concentration gradient of compound atractylenolide III; final concentrations of the compound in 100 uL platelets are respectively 1 μM, 5 μM, 10 μM. The compound is incubated in platelets for 3 mins. The platelets treated by the drug are spread on fibrin (40 μg/mL). After staining by the fluorescent antibody phalloidin, the spreading of platelets is observed under the 100× oil immersion lens.

Akt molecule = test: Western blotting test on phosphorylation levels of related molecules in platelets; conditions: platelet protein samples collected after the aggregation test
Excerpt: After acquiring the aggregation curve in Example 1, platelet protein samples (2×SDS loading protein lysis buffer) are collected, and tested by Western blotting for phosphorylation levels of related molecules.
Testing the phosphorylation levels of related molecules in the signal pathway using Western blotting, when the PI3K/Akt signal pathway is activated, the Akt molecule is activated via phosphorylation, which leads to the activation of downstream enzymes, kinases, transcription factors (e.g. GSK3), etc.
After acquiring the aggregation curve in Example 2, platelet protein samples (2×SDS loading protein lysis buffer) are collected, and tested by Western blotting for phosphorylation levels of related molecules.

Compound	in vitro platelet aggregation inhibition, comparative experiment (platelets [1]; 150 μM)	in vitro platelet aggregation inhibition, comparative experiment (platelets [1]; 10 μM)	platelet aggregation inhibition (platelets [1])	effect on platelet spreading (platelets [2])	phosphorylation level of the Akt molecule (Akt molecule)
CC(=O)Oc1ccccc1C(=O)O [acetylsalicylic acid, reference compound]	does not show the inhibitory effect				
C=C1CCC[C@]2(C)C[C@]3(O)OC(=O)C(C)=C3C[C@@H]12 [atractylenolide III]		has the effect of inhibiting platelet aggregation	has an effect of inhibiting platelet aggregation	has an influence on platelet spreading	affects the phosphorylation level of the Akt molecule
atractylenolide II		has the effect of inhibiting platelet aggregation	has an effect of inhibiting platelet aggregation	has an influence on platelet spreading	
